In publication PMC5469503 (PLoS Pathogens, 2017):

Legend:
[1] = target: T1, V1 subcomplex of the V-ATPase (Saccharomyces cerevisiae, UniProt P16140+P17255); assay: fluorescence titration (TNP-ATP emission); details: pH 7.9, 10.0 °C, 25 mM Tris-HCl, 0.15 M NaCl, 1 mM MgCl2, 0.5 mM DTT, 0.25 μM V1; nucleotide site
T1 construct: gene VMA1

[2] = target: V-ATPase from S. cerevisiae, intact, detergent solubilized (A3B3CDE3FG3Hac8c'c''def), 3xFLAG on the A-subunit (S. cerevisiae) (UniProt P16140); assay: cryo-EM structure

| Substance | Kd [1] | stoichiometry N [2] |
| --- | --- | --- |
| 2',3'-O-(2,4,6-trinitrophenyl) adenosine 5'-triphosphate [TNP-ATP] | 160 ± 50 nM |  |
| SidK, full length (residues 1 to 573) (natural protein) |  | 3 |
